According to patent publication US20050014734A1 (Genovate Biotechnology Co., Ltd., priority 2003, published 2005):
“Also recorded” adds a separate entry of the source. Where two headings read alike, the source gives them in different places.

Experiments:
[1] = polymorph; cited from earlier work
[2] = oral administration; cited from earlier work
[3] = test system: IL-1β; assay: Serum IL-1β by ELISA in the same SLE study; type: in vivo, human; settings: after 24 weeks of 200 mg/day DHEA orally, mean ± SD, n = 15, before treatment 9.94 ± 8.92
Description: (§1) Baseline prednisone (less than 10 mg/day) and other concomitant SLE medications were held constant. The serum levels of cytokines including IL-1, IL-2, interferon-γ, IL-4, and IL-10 were determined by ELISA. The mean change from baseline to 24 weeks of therapy was analyzed. See, below.
(§2) See, Chang et al., Arthritis Rheum., 2002, 46(11):2924-27. The subjects enrolled in the study were adult women with SLE according to American College of Rheumatology (ACR) criteria (see, e.g., Tan, et al., Arthritis Rheum., 1982, 25:1271-7) and who were receiving a prednisone dose (or its corticosteroid equivalent) of 1 to 10 mg/day at the time they entered the study. […]
(§3) Serum testosterone, estradiol and cytokine profiles were measured at baseline and at last visit (i.e., after 24 weeks). Different serum cytokines including […], IL-2, IFN-γ, IL-4, and […] in the subjects were measured using ELISA kits (R&D, Minneapolis, Minn.) according to the manufacturer's instructions.
(§4) Comparisons between groups were done through an independent t-test, while comparisons within groups were done through a paired t-test. All statistical tests were evaluated at a 0.05 level of significance.

[4] = test system: human marrow and mononuclear cells; settings: in vitro; cited from earlier work
[5] = test system: estradiol; assay: Hormone determination: serum estradiol in SLE study; type: in vivo, human; settings: 200 mg/day DHEA, 24 weeks
Description: See, Chang et al., Arthritis Rheum., 2002, 46(11):2924-27. The subjects enrolled in the study were adult women with SLE according to American College of Rheumatology (ACR) criteria (see, e.g., Tan, et al., Arthritis Rheum., 1982, 25:1271-7) and who were receiving a prednisone dose (or its corticosteroid equivalent) of 1 to 10 mg/day at the time they entered the study. Subjects selected for the study had to have active SLE, as defined by a Systemic Lupus Activity Measure (SLAM) score of ≧7, see, e.g., Liang, et al., Arthritis Rheum., 1989, 32:1107-18, and a baseline Systemic Lupus Erythematosus Disease Activity Index (SLEDAI) score ≧2. See, Bombardier, et al., Arthritis Rheum., 1992, 35:630-40.
Subjects that were under treatment with dydroxychloroquine, azathioprine, methotrexate, or cyclophosphamide or a combination thereof, had to have been on a stable regimen with no change in dose and drug combination for at least 6 weeks prior to entry into the study. Subjects who were receiving androgens, immunoglobulins, cyclosporine A, or other immunosuppressive agents (except those noted) were excluded from the study.
as §3

[6] = test system: patients with mild to moderate SLE; settings: cited from earlier work
[7] = test system: IL-10; assay: Serum IL-10 by ELISA in randomized, double-blind, placebo-controlled study in women with active SLE; type: in vivo, human
Description: as §1, §2, §3, §4

[8] = test system: Th2 cells; settings: Th2 cells stimulated by retrovirus infection; cited from earlier work
[9] = test system: peripheral blood mononuclear cells (PBMCs) from adult male lupus patients; settings: pre-incubation with DHEA, concanavalin A stimulated PBMCs; cited from earlier work
[10] = test system: NZB/NZW mouse model of SLE; settings: cited from earlier work
[11] = 200 mg/day for 12 months, 381 women with mild/moderate SLE
[12] = oral daily doses of 200 mg, mild to moderate SLE, van Vollenhoven et al.

Compound | Stability [1] | Rate of absorption [2] | IL-1β after treatment [3] [pg/mL] | Secretion of IL-6 [4] | Estradiol change at last visit, mean ([5]; baseline mean 123) [pg/mL] | Estradiol change at last visit, median ([5]; baseline median 104) [pg/mL] | Median decrease in estradiol ([5]; placebo 31.5) [pg/mL] | Bone mineral density [6, 11] | SLE disease and symptoms [6, 11] | Prednisone reduction ([6]; 200 mg/day, women with active lupus, phase II/III, Petri et al. 2002) | Steroid-sparing effect and flares [6, 12] | Tolerability [6, 12] | Tolerability ([6]; women with lupus, Chang et al. 2002) | Effect on IL-10 level (in words) ([7]; 200 mg/day DHEA for 24 weeks, women with SLE, from baseline) | IL-10 after treatment ([7]; serum, last visit after 24 weeks of 200 mg/day DHEA orally, mean ± SD, n = 15, before treatment 9.21 ± 6.75, p=0.045 vs placebo, p=0.029 vs baseline) [pg/mL] | Production of IL-6 and tumor necrosis factor alpha [8] | IL-4 production [9] | Onset of disease and mortality [10]
C[C@]12CC[C@H](O)CC1=CC[C@@H]1[C@@H]2CC[C@]2(C)C(=O)CC[C@@H]12 [DHEA form II, dehydroepiandrosterone] | stable under typical ambient conditions | rapid rate of absorption (greater than the form I polymorph) | – | – | – | – | – | – | – | – | – | – | – | – | – | – | – | –
C[C@]12CC[C@H](O)CC1=CC[C@@H]1[C@@H]2CC[C@]2(C)C(=O)CC[C@@H]12 [DHEA form I, dehydroepiandrosterone] | highly stable | – | – | – | – | – | – | – | – | – | – | – | – | – | – | – | – | –
C[C@]12CC[C@H](O)CC1=CC[C@@H]1[C@@H]2CC[C@]2(C)C(=O)CC[C@@H]12 [DHEA, dehydroepiandrosterone] | – | – | 9.20 ± 6.49 | reduce secretion of IL-6 | -48 | -39 | 39.3 | prevented loss of bone mineral density in a significantly greater proportion of patients than placebo | improved or stabilized SLE disease and its symptoms without clinical deterioration | enabled prednisone reduction to physiologic levels in a significantly greater proportion of patients than placebo | may have steroid-sparing effects and reduce flares | well-tolerated | well-tolerated | significant reduction; also recorded: significant IL-10 suppression | 1.89 ± 1.47 | suppressed the production of cytokines IL-6 and tumor necrosis factor alpha | reduced the IL-4 production | significantly delayed onset of disease and a reduction in mortality
